Measured values from the supplement of paper PMC3974653.

Tested on: MTT (mouse pheochromocytoma)
Assay: IC50 of cell viability (ATP content)
Details: (24 or 48 h)
Outline: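 MTT mouse pheochromocytoma cells in white 1536-well plates were treated for 24 or 48 hrs with library compounds at 8 final concentrations from 0.5 nM to 46 µM. ATP content was measured with CellTiter-Glo luminescence, using positive-control wells as 100% and DMSO wells as 0%. IC50 came from a four-parameter logistic fit.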

Row | Structure (SMILES) | IC50 of cell viability [µM]
1 | CN1CC[C@@]23C4OC5=C(OC(C)=O)C=CC(=C25)C[C@@H]1C3\C=C/C4OC(C)=O (stereo partly specified) [3,6-Diacetylmorphine] | > 46
2 | C1N2CN3CN1CN(C2)C3 [3-0760 Hexamethylenetetramine] | > 46
3 | OCC(O)COc1ccc(Cl)cc1 (stereo unspecified) [3-(4-CHLOROPHENOXY)-1,2-PROPANEDIOL] | > 46
4 | N#CCCN.N#CCCN.O=C(O)/C=C/C(=O)O [3-Aminopropionitrile fumarate] | > 46
5 | OCCCBr [3-Bromo-1-propanol] | > 46
6 | OCCCc1ccccc1 [3-Phenyl-1-propanol] | > 46
7 | OCc1cccnc1 [3-Pyridinemethanol] | > 46
8 | C[N+]1(C)C2CCC1CC(OC(=O)c1c[nH]c3ccccc13)C2.[I-] (stereo unspecified) [3-Tropanylindole-3-carboxylate methiodide] | > 46
9 | CCCn1c(=O)[nH]c(=O)c2[nH]cnc21 [3-n-PROPYLXANTHINE] | > 46
10 | CC(=O)O[C@H]1CC[C@@]2(C)C(=CC[C@H]3[C@@H]4CC[C@H](C(C)=O)[C@@]4(C)CC[C@@H]32)C1 [3BETA-ACETOXY-5-PREGNENE-20-ONE] | > 46
11 | O=[S+]([O-])(c1ccc(Cl)cc1)c1ccc(Cl)cc1 [4,4'-Dichlorodiphenyl sulfone] | > 46
12 | Nc1ccc(Sc2ccc(N)cc2)cc1 [4,4'-Thiodianiline] | > 46
13 | Oc1noc2c1CCNC2 [4,5,6,7-TETRAHYDROISOXAZOLO[5,4-c]PYRIDIN-3-OL] | > 46
14 | CC(C)(C)CC(C)(C)c1ccc(O)cc1 [4-(1,1,3,3-Tetramethylbutyl)phenol] | > 46
15 | O=C(O)CCCOc1ccc(Cl)cc1Cl [4-(2,4-Dichlorophenoxy)butyric acid] | > 46
16 | Nc1ccncc1 [4-AMINOPYRIDINE] | > 46

Row | Structure (SMILES) | IC50 of cell viability [µM]
17 | Nc1ccc(O)c([N+](=O)[O-])c1 [4-Amino-2-nitrophenol] | > 46
18 | Nc1ccc(/N=N/c2ccccc2)cc1 [4-Aminoazobenzene] | > 46
19 | Nc1ccc(O)cc1 [4-Aminophenol] | > 46
20 | CC12CCC3C(CC\C4=C(/O)C(=O)CCC34C)C1CCC2=O (stereo unspecified) [4-Androsten-4-ol-3,17-dione] | > 46
21 | Nc1ccc(Cl)cc1N [4-Chloro-o-phenylenediamine] | > 46
22 | CN(C)\C1=C(/C)N(C)N(C2=CC=CC=C2)C1=O [4-Dimethylaminoantipyrine] | > 46
23 | CCCCCCCCCC(CC)c1ccc([S+](=O)([O-])O)cc1 (stereo unspecified) [4-Dodecylbenzenesulfonic acid] | > 46
24 | NCCc1ccc(O)cc1 [4-HYDROXYPHENETHYLAMINE] | > 46
25 | CCCCCCc1ccc(O)cc1O [4-Hexylresorcinol] | > 46
26 | O=P1(N(CCCl)CCCl)NC(OO)CCO1 (stereo unspecified) [4-Hydroperoxy Cyclophosphamide] | > 46
27 | Cc1cn[nH]c1.Cl [4-Methylpyrazole hydrochloride] | > 46
28 | Nc1ccc([N+](=O)[O-])cc1 [4-Nitroaniline] | > 46
29 | CCCCCCCCCc1ccc(O)cc1 [4-Nonylphenol, branched] | > 46
30 | C(=C\c1ccncc1)/c1ccccc1 [4-STYRYLPYRIDINE] | > 46
31 | CC(C)(C)c1ccc(O)cc1 [4-T-BUTYLPHENOL FORMALDEHYDE RESIN] | > 46
